US8119640B2, “Hedgehog pathway antagonists methods of use” (The Board of Trustees of the Leland Stanford Junior …, priority 2008, dated 2012)

Assays:
FLAG-Gli2 = test: Analysis of Gli2 processing and Shh-dependent Gli2 stabilization; type: cell-based, mouse; details: Shh-EGFP FLAG-Gli2 cells, absence and presence of Shh, 24 h
Description: Analysis of Gli2 processing and Shh-dependent Gli2 stabilization. […] Each compound incubation was also done in the absence and presence of 5% Shh-N-conditioned medium, and the cells were maintained under these conditions for 24 h. The cells were subsequently solubilized in lysis buffer (100 μL/well; 50 mM Tris-HCl, pH 7.4, 1% Triton X-100, 250 mM NaCl, 2 mM EDTA, 20 mM NaF, 2 mM Na3VO4, 2 mM 2-mercaptoethanol, EDTA-free protease inhibitor cocktail (Roche)). This suspension was transferred to a 1.5-mL centrifuge tube and incubated on ice for 30 min, with vortexing every 5 min. The cell lysates were then centrifuged at 20,000×g at 4° C. for 20 min. Supernatants were removed, and a BCA protein assay was performed to quantify protein levels. Mouse anti-FLAG M2 agarose slurry (20 μL, Sigma) was pelleted by centrifugation and incubated with 800 ng of protein from each condition for 90 min at 4° C. and then washed three times with 1 mL of wash buffer (75 mM Tris-HCl buffer, pH 8.0 containing 225 mM NaCl, 0.5% Triton X-100) and centrifuged at 2,300×g at 4° C. The agarose beads were suspended in 30 μL of 1×SDS-PAGE sample buffer (50 mM Tris-HCl, pH 6.8 containing 10% glycerol, 2% SDS, 50 mM DTT, 200 mM 2-mercaptoethanol, and 0.001% bromophenol blue), and the mixture was boiled for 5 min. The samples were then resolved on a 4-12% Bis-Tris Criterion XT gel and transferred to a PVDF membrane. The membrane was dehydrated with methanol, and then probed with rabbit anti-FLAG antibody (Sigma; 1:1,000 dilution in blocking buffer (PBS 21 containing 3% non-fat dried milk and 0.01% Tween 20)) for 90 min. […] Blots were washed 4×3 min in PBS, and the immunoreactive bands were detected with a SuperSignal West Dura kit and a ChemiDoc XRS system. Protein bands were quantified using Quantity One software (Bio-Rad). For each experiment, boxes of equal size were drawn around the FLAG-Gli2 and FLAG-Gli2R bands. Band intensities were then normalized to the average intensity for all bands in a given experiment. The results from all experiments were averaged and normalized relative to the basal level of FLAG-Gli2 (DMSO treatment without Shh-N-conditioned medium).

Gli2 αPKA = test: Hh pathway activation by overexpressed Gli2 phosphosite mutants; type: cell-based; details: NIH-3T3 cells; 15 μM HPI-1, 20 μM HPI-2
Description: Hh pathway activation mediated by the overexpression of Gli, Gli2, Gli2αPKA, or Gli2αGSK. […] The cells were co-transfected the following day with 220 ng/well pcDNA-derived Gli1, Gli2, or Gli2 phosphosite mutant expression vectors and 80 ng/well of a 1:15 mixture of phRLTK (Promega) and 8XGIiBS-FL. After transfection, cells were grown to confluence (approximately 48 h). The cell were then incubated for an additional 28-32 h in DMEM containing 0.5% CS, 100 U/mL penicillin, 0.1 mg/mL streptomycin, and either DMSO, 50 μM forskolin, 50 μM LY294002, or various concentrations of the HPIs. Firefly and Renilla luciferase activities were measured using a dual luciferase kit and a Veritas microplate luminometer.

CREB = test: PKA-mediated CREB phosphorylation assay; type: cell-based; details: NIH-3T3 cells; 15 μM HPI-1, 20 μM HPI-2
Description: PKA-mediated CREB phosphorylation assay. […] The cells were cultured for an additional 2 h and then lysed in hot 2×SDS-PAGE sample buffer (100 mM Tris, pH 6.8, 200 mM DTT, 0.02% bromophenol blue, 16 20 mM NaF, 2 mM sodium orthovandate, 4% SDS, and 20% glycerol). After the samples were boiled for 5 min, they were resolved on 4-12% Criterion XT gels (Bio-Rad) and transferred to PVDF membranes (Millipore). The membranes were blocked overnight in TBST buffer (Trisbuffered saline with 0.1% Tween 20) containing 5% bovine serum albumin and then probed with either anti-phosphorylated CREB (87G3, Cell Signaling Technology; 1:1,000 dilution) or CREB (48H2, Cell Signaling Technology, 1:1,000 dilution) antibodies.

[1] = test system: Math1-cre:SmoM2 cerebellar GNPs; test: Math1-cre:SmoM2 cerebellar GNP proliferation; type: cell-based, mice; details: for Proliferation of SmoM2-expressing GNPs (histone H3 phosphorylation): HPIs 10 μM, cyclopamine 5 μM, 24 h
Description: Analysis of Math1-cre:SmoM2 cerebellar GNP proliferation. To generate Math1-cre:SmoM2 tumors (11), a Math1-cre driver was used to conditionally express an activated Smo (SmoM2) allele. The Gt(ROSA)26Sortm1 (Smo/EYFP)Amc/J) mouse line was obtained from Jackson Laboratory (Bar Harbor, ME). […] Primary cultures from Math1-cre:SmoM2 tumors were established by triturating tumor tissue and plating the dissociated cells onto poly-D-ornithine-coated plates in DMEM-F-12 with N2 supplement, 25 mM KCI, and antibiotics. After culturing the cells for 24 h, they were treated with individual HPIs ([…]) for 24 h. Cell proliferation was then quantified by immunocytochemistry, and the expression of cyclin D1 and Gli1 were assessed by immunoblotting and RT-PCR, respectively. For immunocytochemistry, the primary cultures were fixed in 4% paraformaldehyde for 30 min at room temperature. […] Immunofluorescently stained cultures were imaged using a Nikon Eclipse E600 microscope equipped with a 20×objective. Approximately 30,000 cells were analyzed for each experimental condition. To detect proteins by immunoblotting, non-denaturing lysates were prepared from Math1-cre:SmoM2 cultures using lysate buffer (50 mM HEPES, pH 7.4, containing 150 mM NaCl, 1 mM EDTA, 2.5 mM EGTA, 0.1% Triton X-100, 10% glycerol, and 1 mM DTT), resolved on a 10% SDS-PAGE gel, and transferred onto a PVDF membrane. The membrane was incubated overnight at 4° C. with anti-cyclin D1 (Ab-3, Neomarkers; 1:1,000 dilution) or anti-β-tubulin (T4026, Sigma; 1:5,000 dilution) antibodies. […] For RT-PCR analyses, total RNA from Math1-cre:SmoM2cultures was extracted with TRIzol (Invitrogen) according to the manufacturer's protocol. The RNA was purified further […] with an RNeasy kit (Qiagen), and then reverse-transcribed with an Advantage RT-for-PCR Kit (Clontech) and random hexamer primers. […] Typical PCR conditions were as follows: an initial denaturation at 95° C. for 1 min followed by 28 cycles of denaturation at 94° C. for 45 sec, annealing at 60° C. for 45 sec, extension at 70° C. for 2 min, and a final extension at 72° C. for 7 min. The resulting PCR products were analyzed on 2% agarose gels.

Row | SMILES | FLAG-Gli2 levels and processing (immunoblotting) (FLAG-Gli2) | Sensitivity of overexpressed Gli2 αPKA mutant to compound (Gli2 αPKA) | PKA-dependent phosphorylation of CREB (CREB) | Cellular levels of cyclin D1 protein and Gli1 transcripts in GNPs [1] | Proliferation of SmoM2-expressing GNPs (histone H3 phosphorylation) [1]
1 | COCCOC(=O)C1=C(C)NC2=C(C(=O)CC(c3ccccc3OC)C2)C1c1cccc(O)c1 (mixture of isomers) [Compound 8, 4-(3-Hydroxy-phenyl)-7-(2-methoxy-phenyl)-2-methyl-5-oxo-1,4,5,6,7,8-hexahydro-quinoline-3-carboxylic acid 2-methoxy-ethyl ester] | slightly elevated levels of full-length and repressor forms of FLAG-Gli2 under basal conditions and greater FLAG-Gli2 processing upon Shh stimulation | partially resistant | does not induce the PKA-dependent phosphorylation | reduced cellular levels of cyclin D1 protein and Gli1 transcripts | significantly inhibited the proliferation
2 | OCCNc1nc(N2CCN(c3ccccc3)CC2)nc2ccccc12 [Compound 11] | moderately increased total FLAG-Gli2 levels as well but did not alter proteolytic processing of the transcription factor | – | – | – | did not block GNP proliferation
3 | COc1ccc(OC)c2c1cc1n2CC(C)(C(=O)NC2CCCCCCC2)N(CCN(C)C)C1=O (centres unmarked) [Compound 17] | moderately increased total FLAG-Gli2 levels as well but did not alter proteolytic processing of the transcription factor | partially resistant | significantly lower than that observed in forskolin-treated cells | – | did not block GNP proliferation
4 | N#CC(C(=O)c1ccc(Cl)cc1Cl)=C1NC(=O)c2ccccc2N1 [Compound 18] | both decreased total FLAG-Gli2 levels and prevented Shh dependent stabilization of full-length FLAG-Gli2 | – | – | reduced cellular levels of cyclin D1 protein and Gli1 transcripts | significantly inhibited the proliferation
